# Measurements published in ChEMBL document CHEMBL3784995, “Inhibitors of HIV-1 maturation: Development of structure-activity relationship for C-28 amides based on C-3 benzoic acid-modified triterpenoids” (Bioorg Med Chem Lett, 2016).
# What was measured:
# [1] = Bioavailability in cannula implanted rat at 5 mg/kg administered through oral gavage after 24 hrs by LC-MS/MS analysis; format: ADME, organism-based; conditions: in vivo
# [2] = test system: Human immunodeficiency virus 1; experiment: Antiviral activity against wild type HIV1 NL4-3 habouring Gag protein delta V370 infected in human MT2 cells after 4 to 5 days by dual-luciferase reporter gene assay; format: functional, organism-based; conditions: Human immunodeficiency virus 1, NL4-3, MT2
# [3] = test system: Human immunodeficiency virus 1; experiment: Antiviral activity against wild type HIV1 NL4-3 infected in human MT2 cells after 4 to 5 days by dual-luciferase reporter gene assay; format: functional, organism-based; conditions: Human immunodeficiency virus 1, NL4-3, MT2
# [4] = test system: Human immunodeficiency virus 1; experiment: Antiviral activity against wild type HIV1 NL4-3 infected in human MT2 cells after 4 to 5 days by dual-luciferase reporter gene assay in presence of human serum albumin; format: functional, organism-based; conditions: Human immunodeficiency virus 1, NL4-3, MT2
# [5] = test system: Human immunodeficiency virus 1; experiment: Antiviral activity against wild type HIV1 NL4-3 habouring Gag protein V370A mutant infected in human MT2 cells after 4 to 5 days by dual-luciferase reporter gene assay; format: functional, organism-based; conditions: Human immunodeficiency virus 1, NL4-3, MT2
# [6] = Cytotoxicity against human MT2 cells; format: cell-based
# [7] = Metabolic stability in human liver microsomes at 0.5 uM by LC-MS/MS analysis in presence of NADPH; format: ADME
# [8] = Metabolic stability in rat liver microsomes at 0.5 uM by LC-MS/MS analysis in presence of NADPH; format: ADME
# [9] = AUC (0 to 6 hrs) in cannula implanted rat at 5 mg/kg administered through oral gavage after 24 hrs by LC-MS/MS analysis; format: ADME, organism-based; parameters: dose 5 mg/kg, time < 6 hr, route oral; conditions: in vivo
# [10] = Plasma clearance in cannula implanted rat at 1 mg/kg, iv by LC-MS/MS analysis; format: ADME, organism-based
# [11] = Cmax in cannula implanted rat at 5 mg/kg administered through oral gavage after 24 hrs by LC-MS/MS analysis; format: ADME, organism-based; parameters: dose 5 mg/kg, route oral; conditions: in vivo
# [12] = Total AUC in cannula implanted rat at 5 mg/kg administered through oral gavage after 24 hrs by LC-MS/MS analysis; format: ADME, organism-based; parameters: dose 5 mg/kg, time AUCmax, route oral; conditions: in vivo
# [13] = Plasma concentration in cannula implanted rat at 5 mg/kg administered through oral gavage after 24 hrs by LC-MS/MS analysis; format: ADME, organism-based
# in vivo = conditions: rat, iv, 1 mg/kg
# Description: Volume of distribution at steady state in cannula implanted rat at 1 mg/kg, iv by LC-MS/MS analysis
# [14] = test system: Human immunodeficiency virus 1; experiment: Antiviral activity against wild type BVM-resistant HIV1 NL4-3 habouring Gag protein T371A mutant infected in human MT2 cells after 4 to 5 days by dual-luciferase reporter gene assay; format: functional, organism-based; conditions: Human immunodeficiency virus 1, NL4-3, MT2
Structure (SMILES),bioavailability [1] [%],EC50 [2] [nM],EC50 [3] [nM],EC50 [4] [nM],EC50 [5] [nM],CC50 [6] [nM],half-life at 0.5 µM [7] [h],half-life at 0.5 µM [8] [h],AUC(0-t) at 6 h [9] [µM·h],clearance [10] [mL/min/kg],Cmax [11] [nM],AUC at 24 h [12] [µM·h],concentration at 24 h [13] [nM],Vd (in vivo) [L/kg],EC50 [14] [nM]
C=C(C)[C@@H]1CC[C@]2(C(=O)O)CC[C@]3(C)[C@H](CC[C@@H]4[C@@]5(C)CC=C(c6ccc(C(=O)O)cc6)C(C)(C)[C@@H]5CC[C@]43C)[C@@H]12,4,> 6000,,,,,,,,,,,,,
C=C(C)[C@@H]1CC[C@]2(C(=O)NC)CC[C@]3(C)[C@H](CC[C@@H]4[C@@]5(C)CC=C(c6ccc(C(=O)O)cc6)C(C)(C)[C@@H]5CC[C@]43C)[C@@H]12,,,10,28,252,7000,,,,,,,,,
C=C(C)[C@@H]1CC[C@]2(C(=O)NCCN(CC)CC(=O)O)CC[C@]3(C)[C@H](CC[C@@H]4[C@@]5(C)CC=C(c6ccc(C(=O)O)cc6)C(C)(C)[C@@H]5CC[C@]43C)[C@@H]12,,64,3,,9,17000,> 2,> 2,0.22,26.7,,,,,
C=C(C)[C@@H]1CC[C@]2(C(=O)NCC(=O)O)CC[C@]3(C)[C@H](CC[C@@H]4[C@@]5(C)CC=C(c6ccc(C(=O)O)cc6)C(C)(C)[C@@H]5CC[C@]43C)[C@@H]12,,> 2000,106,,> 2000,> 50000,,,,,,,,,
C=C(C)[C@@H]1CC[C@]2(C(=O)NS(=O)(=O)C3CC3)CC[C@]3(C)[C@H](CC[C@@H]4[C@@]5(C)CC=C(c6ccc(C(=O)O)cc6)C(C)(C)[C@@H]5CC[C@]43C)[C@@H]12,,1190,59,166,67,18000,,,,,,,,,
C=C(C)[C@@H]1CC[C@]2(C(=O)NCCC(C)C)CC[C@]3(C)[C@H](CC[C@@H]4[C@@]5(C)CC=C(c6ccc(C(=O)O)cc6)C(C)(C)[C@@H]5CC[C@]43C)[C@@H]12,,1610,47,,101,11000,,,1.58,0.6,731,,,,
C=C(C)[C@@H]1CC[C@]2(C(=O)NCc3nccs3)CC[C@]3(C)[C@H](CC[C@@H]4[C@@]5(C)CC=C(c6ccc(C(=O)O)cc6)C(C)(C)[C@@H]5CC[C@]43C)[C@@H]12,,690,15,,28,6000,,,,,,,,,
C=C(C)[C@@H]1CC[C@]2(C(=O)NCCN(CC)CC)CC[C@]3(C)[C@H](CC[C@@H]4[C@@]5(C)CC=C(c6ccc(C(=O)O)cc6)C(C)(C)[C@@H]5CC[C@]43C)[C@@H]12,,39,2,,7,33000,,,0.809,3.3,229,,,,
C=C(C)[C@@H]1CC[C@]2(C(=O)N(C)CCN(C)C)CC[C@]3(C)[C@H](CC[C@@H]4[C@@]5(C)CC=C(c6ccc(C(=O)O)cc6)C(C)(C)[C@@H]5CC[C@]43C)[C@@H]12,11,25,6,17,38,3000,> 2,1.42,1.42,2.2,386,6.87,108,,
C=C(C)[C@@H]1CC[C@]2(C(=O)NCc3ccccn3)CC[C@]3(C)[C@H](CC[C@@H]4[C@@]5(C)CC=C(c6ccc(C(=O)O)cc6)C(C)(C)[C@@H]5CC[C@]43C)[C@@H]12,,,5,9,31,1000,,,,,,,,,
C=C(C)[C@@H]1CC[C@]2(C(=O)NCCC(=O)O)CC[C@]3(C)[C@H](CC[C@@H]4[C@@]5(C)CC=C(c6ccc(C(=O)O)cc6)C(C)(C)[C@@H]5CC[C@]43C)[C@@H]12,71,> 4000,37,449,427,36000,1.88,> 2,43.2,1.2,9470,79.9,137,0.02,
C=C(C)[C@@H]1CC[C@]2(C(=O)NS(C)(=O)=O)CC[C@]3(C)[C@H](CC[C@@H]4[C@@]5(C)CC=C(c6ccc(C(=O)O)cc6)C(C)(C)[C@@H]5CC[C@]43C)[C@@H]12,,,47,1520,282,16000,,,,,,,,,
C=C(C)[C@@H]1CC[C@]2(C(=O)NCCNC(C)=O)CC[C@]3(C)[C@H](CC[C@@H]4[C@@]5(C)CC=C(c6ccc(C(=O)O)cc6)C(C)(C)[C@@H]5CC[C@]43C)[C@@H]12,,361,5,22,24,12000,,,,,,,,,
C=C(C)[C@@H]1CC[C@]2(C(=O)N3CCCCC3)CC[C@]3(C)[C@H](CC[C@@H]4[C@@]5(C)CC=C(c6ccc(C(=O)O)cc6)C(C)(C)[C@@H]5CC[C@]43C)[C@@H]12,,,369,1580,,200,,,,,,,,,
C=C(C)[C@@H]1CC[C@]2(C(=O)NCCO)CC[C@]3(C)[C@H](CC[C@@H]4[C@@]5(C)CC=C(c6ccc(C(=O)O)cc6)C(C)(C)[C@@H]5CC[C@]43C)[C@@H]12,,> 2000,7,39,41,7000,,,,,,,,,
C=C(C)[C@@H]1CC[C@]2(C(=O)NCCN3CCOCC3)CC[C@]3(C)[C@H](CC[C@@H]4[C@@]5(C)CC=C(c6ccc(C(=O)O)cc6)C(C)(C)[C@@H]5CC[C@]43C)[C@@H]12,,77,7,28,12,5000,,,,,,,,,
C=C(C)[C@@H]1CC[C@]2(C(=O)NCCCN(C)C)CC[C@]3(C)[C@H](CC[C@@H]4[C@@]5(C)CC=C(c6ccc(C(=O)O)cc6)C(C)(C)[C@@H]5CC[C@]43C)[C@@H]12,,50,2,3,9,500,> 2,> 2,0.116,8.3,36,,,,
C=C(C)[C@@H]1CC[C@]2(C(=O)NCCN(C(C)C)C(C)C)CC[C@]3(C)[C@H](CC[C@@H]4[C@@]5(C)CC=C(c6ccc(C(=O)O)cc6)C(C)(C)[C@@H]5CC[C@]43C)[C@@H]12,,69,4,,13,3000,> 2,> 2,1.31,4.3,302,,,,
C=C(C)[C@@H]1CC[C@]2(C(=O)O)CC[C@]3(C)[C@H](CC[C@@H]4[C@@]5(C)CC[C@H](OC(=O)CC(C)(C)C(=O)O)C(C)(C)[C@@H]5CC[C@]43C)[C@@H]12 [BEVIRIMAT],,> 10000,,,,,,,,,,,,,40
